Experiments:
[1] = target: T1, WRN [UniPro: Q14191 (WRN_HUMAN), N500-C946] (Homo sapiens (Human), UniProt Q14191); test: WRN ATPase assay (ADP-Glo); type: biochemical; conditions: WRN enzymatic activity assay
Procedure: WRN ATPase assay was initiated to evaluate potential inhibitory effect of compounds for ATP hydrolysis activity of WRN protein. WRN [UniPro: Q14191 (WRN_HUMAN), N500-C946] was expressed and purified in insect system and stored at −80° C. in aliquots. […] ADP quantity produced from ATP hydrolysis by WRN catalytic reaction was measured using a commercially available ADP-Glo Assay (ADP-Glo™ Kinase Assay from Promega, 10000 assays, #V9102). […] Compounds dissolved in DMSO (Sigma, D8418) were plated into a 96-well intermediate plate (BioFil, VWP-032-096) for 3-fold serial titration for 10 points using DMSO, and well-to-well transfer the titrated compounds into another 96-well intermediate plate including assay buffer in advance. Shake the 96-well intermediate plate at 600 rpm for 10 min to fully mix. Specifically, a 4× working mixture of WRN was diluted to a concentration of 8 nM in assay buffer. […] After centrifuging at 1000 rpm and shaking at 500 rpm, the assay plate was pre-incubated for 30 min. Then, 5 μL 2×FORKF DNA and ATP working mixture was dispensed into assay plate. Plate was sealed, centrifuged and incubated for an additional 40 min. at 37° C. The reaction was stopped with the addition of 10 μL of the first ADP-Glo reagent and incubated for 40 min. to remove the excess amount of ATP. Afterwards, 20 μL of ATP detection reagent was added and incubated for 30 min. before reading. Luminescence output was recorded using BMG CLARIO star plus reader. Each concentration of compound was tested in duplicates in the assay plate. Average luminescence signal of high control (Wells with 1% DMSO) was calculated as High Control (HC). Average luminescence signal of low control (Wells with no WRN protein) was calculated as Low control (LC).
IC50 values were determined by fitting the data to the standard 4 parameters with Hill Slope using GraphPad Prism software.

[2] = target: T1, WRN [UniPro: Q14191 (WRN_HUMAN), N500-C946]; test: WRN unwinding assay (FORKF DNA, fluorescence); type: biochemical; conditions: Table 14

T1 sequence (Q14191 500-946): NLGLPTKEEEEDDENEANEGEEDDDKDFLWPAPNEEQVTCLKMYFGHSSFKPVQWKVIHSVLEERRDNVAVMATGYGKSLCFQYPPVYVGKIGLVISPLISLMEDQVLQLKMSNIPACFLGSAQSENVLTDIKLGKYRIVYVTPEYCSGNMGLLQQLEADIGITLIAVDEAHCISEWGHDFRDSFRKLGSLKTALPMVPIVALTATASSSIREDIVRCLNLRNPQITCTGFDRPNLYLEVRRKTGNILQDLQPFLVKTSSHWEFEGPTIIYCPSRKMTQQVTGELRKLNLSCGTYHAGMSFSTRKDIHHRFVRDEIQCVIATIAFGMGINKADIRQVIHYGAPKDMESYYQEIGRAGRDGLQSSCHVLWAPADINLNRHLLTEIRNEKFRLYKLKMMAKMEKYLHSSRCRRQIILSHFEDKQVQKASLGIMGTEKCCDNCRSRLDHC

Structure (SMILES)	IC50 [1] [nM]	IC50 [2] [nM]
CCc1c(N2CCN(C(=O)C(=O)Nc3nncs3)CC2)c(=O)n2nc(C3=CCOCC3)nc2n1CC(=O)Nc1ccc(C(F)(F)F)cc1F [Example 342, 2-(4-(2-(3,6-Dihydro-2H-pyran-4-yl)-5-ethyl-4-(2-((2-fluoro-4-(trifluoromethyl)phenyl)amino)-2-oxoethyl)-7-oxo-4,7-dihydro-[1,2,4]triazolo[1,5-a]pyrimidin-6-yl)piperazin-1-yl)-2-oxo-N-(1,3,4-thiadiazol-2-yl)acetamide]	< 100	< 100
CCc1c(N2CCN(C(=O)C(=O)Nc3ccccc3)CC2)c(=O)n2nc(C3=CCOCC3)nc2n1CC(=O)Nc1ccc(C(F)(F)F)cc1Cl [Example 327, 2-(4-(4-(2-((2-Chloro-4-(trifluoromethyl)phenyl)amino)-2-oxoethyl)-2-(3,6-dihydro-2H-pyran-4-yl)-5-ethyl-7-oxo-4,7-dihydro-[1,2,4]triazolo[1,5-a]pyrimidin-6-yl)piperazin-1-yl)-2-oxo-N-phenylacetamide]	100 to 1000	100 to 1000
CCc1c(N2CCN(C(=O)c3nnc(C(F)(F)F)[nH]3)CC2)c(=O)n2nc(C3=CCOCC3)nc2n1CC(=O)Nc1ccc(C(F)(F)F)cc1F [Example 311, 2-(2-(3,6-Dihydro-2H-pyran-4-yl)-5-ethyl-7-oxo-6-(4-(5-(trifluoromethyl)-4H-1,2,4-triazole-3-carbonyl)piperazin-1-yl)-[1,2,4]triazolo[1,5-a]pyrimidin-4(7H)-yl)-N-(2-fluoro-4-(trifluoromethyl)phenyl)acetamide]	< 100	< 100
CCc1c(N2CCN(C(=O)c3ncc4c(ccn4C)c3O)CC2)c(=O)n2nc(C3=CCOCC3)nc2n1CC(=O)Nc1ccc(C(F)(F)F)cc1Cl [Example 205, N-(2-Chloro-4-(trifluoromethyl)phenyl)-2-(2-(3,6-dihydro-2H-pyran-4-yl)-5-ethyl-6-(4-(4-hydroxy-1-methyl-1H-pyrrolo[2,3-c]pyridine-5-carbonyl)piperazin-1-yl)-7-oxo-[1,2,4]triazolo[1,5-a]pyrimidin-4(7H)-yl)acetamide]	< 100	< 100
CCc1c(N2CCN(C(=O)C(=O)Nc3nccs3)CC2)c(=O)n2nc(C3=CCOCC3)nc2n1CC(=O)Nc1ccc(C(F)(F)F)cc1F [Example 227, 2-(4-(2-(3,6-Dihydro-2H-pyran-4-yl)-5-ethyl-4-(2-((2-fluoro-4-(trifluoromethyl)phenyl)amino)-2-oxoethyl)-7-oxo-4,7-dihydro-[1,2,4]triazolo[1,5-a]pyrimidin-6-yl)piperazin-1-yl)-2-oxo-N-(thiazol-2-yl)acetamide]	< 100	< 100
CCc1c(N2CCN(C(=O)CNC(=O)c3ncccc3O)CC2)c(=O)n2nc(C3=CCOCC3)nc2n1CC(=O)Nc1ccc(C(F)(F)F)cc1Cl [Example 271, N-(2-(4-(4-(2-((2-Chloro-4-(trifluoromethyl)phenyl)amino)-2-oxoethyl)-2-(3,6-dihydro-2H-pyran-4-yl)-5-ethyl-7-oxo-4,7-dihydro-[1,2,4]triazolo[1,5-a]pyrimidin-6-yl)piperazin-1-yl)-2-oxoethyl)-3-hydroxypicolinamide]	100 to 1000	< 100
CCc1c(N2CCN(C(=O)CNC(=O)c3nccs3)CC2)c(=O)n2nc(C3=CCOCC3)nc2n1CC(=O)Nc1ccc(C(F)(F)F)cc1Cl [Example 100, N-(2-(4-(4-(2-((2-Chloro-4-(trifluoromethyl)phenyl)amino)-2-oxoethyl)-2-(3,6-dihydro-2H-pyran-4-yl)-5-ethyl-7-oxo-4,7-dihydro-[1,2,4]triazolo[1,5-a]pyrimidin-6-yl)piperazin-1-yl)-2-oxoethyl)thiazole-2-carboxamide]	< 100	< 100
CCc1c(N2CCN(C(=O)NS(=O)(=O)CC)CC2)c(=O)n2nc(C3=CCOCC3)nc2n1CC(=O)Nc1ccc(C(F)(F)F)cc1Cl [Example 25, 4-(4-(2-((2-Chloro-4-(trifluoromethyl)phenyl)amino)-2-oxoethyl)-2-(3,6-dihydro-2H-pyran-4-yl)-5-ethyl-7-oxo-4,7-dihydro-[1,2,4]triazolo[1,5-a]pyrimidin-6-yl)-N-(ethylsulfonyl)piperazine-1-carboxamide]	< 100	< 100
CCc1c(N2CCN(C(=O)CNC(=O)c3cc(C)on3)CC2)c(=O)n2nc(C3=CCOCC3)nc2n1CC(=O)Nc1ccc(C(F)(F)F)cc1F [Example 218, N-(2-(4-(2-(3,6-Dihydro-2H-pyran-4-yl)-5-ethyl-4-(2-((2-fluoro-4-(trifluoromethyl)phenyl)amino)-2-oxoethyl)-7-oxo-4,7-dihydro-[1,2,4]triazolo[1,5-a]pyrimidin-6-yl)piperazin-1-yl)-2-oxoethyl)-5-methylisoxazole-3-carboxamide]	< 100	< 100
CCc1c(N2CCN(C(=O)CNC(=O)c3[nH]c(=O)ccc3F)CC2)c(=O)n2nc(C3=CCOCC3)nc2n1CC(=O)Nc1ccc(C(F)(F)F)cc1Cl [Example 365, N-(2-(4-(4-(2-((2-Chloro-4-(trifluoromethyl)phenyl)amino)-2-oxoethyl)-2-(3,6-dihydro-2H-pyran-4-yl)-5-ethyl-7-oxo-4,7-dihydro-[1,2,4]triazolo[1,5-a]pyrimidin-6-yl)piperazin-1-yl)-2-oxoethyl)-3-fluoro-6-oxo-1,6-dihydropyridine-2-carboxamide]	100 to 1000	< 100
CCc1c(N2CCN(C(=O)CNC(=O)c3c(F)cccc3F)CC2)c(=O)n2nc(C3=CCOCC3)nc2n1CC(=O)Nc1ccc(C(F)(F)F)cc1Cl [Example 124, N-(2-(4-(4-(2-((2-Chloro-4-(trifluoromethyl)phenyl)amino)-2-oxoethyl)-2-(3,6-dihydro-2H-pyran-4-yl)-5-ethyl-7-oxo-4,7-dihydro-[1,2,4]triazolo[1,5-a]pyrimidin-6-yl)piperazin-1-yl)-2-oxoethyl)-2,6-difluorobenzamide]	< 100	< 100
CCc1c(N2CCN(C(=O)C(=O)Nc3nccs3)CC2)c(=O)n2nc(N3CCn4cncc4C3)nc2n1CC(=O)Nc1ccc(C(F)(F)F)cc1F [Example 261, 2-(4-(2-(5,6-Dihydroimidazo[1,5-a]pyrazin-7 (8H)-yl)-5-ethyl-4-(2-((2-fluoro-4-(trifluoromethyl)phenyl)amino)-2-oxoethyl)-7-oxo-4,7-dihydro-[1,2,4]triazolo[1,5-a]pyrimidin-6-yl)piperazin-1-yl)-2-oxo-N-(thiazol-2-yl)acetamide]	< 100	< 100
CCc1c(N2CCN(C(=O)c3nn4ccnc4cc3O)CC2)c(=O)n2nc(C3=CCOCC3)nc2n1CC(=O)Nc1ccc(C(F)(F)F)cc1Cl [Example 85, N-(2-Chloro-4-(trifluoromethyl)phenyl)-2-(2-(3,6-dihydro-2H-pyran-4-yl)-5-ethyl-6-(4-(7-hydroxyimidazo[1,2-b]pyridazine-6-carbonyl)piperazin-1-yl)-7-oxo-[1,2,4]triazolo[1,5-a]pyrimidin-4(7H)-yl)acetamide]	< 100	< 100
CCc1c(N2CCN(C(=O)CNC(=O)c3ccccc3Br)CC2)c(=O)n2nc(C3=CCOCC3)nc2n1CC(=O)Nc1ccc(C(F)(F)F)cc1Cl [Example 113, 2-Bromo-N-(2-(4-(4-(2-((2-chloro-4-(trifluoromethyl)phenyl)amino)-2-oxoethyl)-2-(3,6-dihydro-2H-pyran-4-yl)-5-ethyl-7-oxo-4,7-dihydro-[1,2,4]triazolo[1,5-a]pyrimidin-6-yl)piperazin-1-yl)-2-oxoethyl)benzamide]	< 100	< 100
